Results taken from ChEMBL document CHEMBL1201862, “PubChem BioAssay data set” (2004).
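Interpolation was linear, between the two tested concentrations surrounding the appropriate level; five concentrations were tested over 48 hours in 96-well plates. At the GI50, growth is halved.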 The source made the active and inactive calls. Cut-off read from the data, not from the text of the source: active = GI50 up to about 1.1 µM and inactive = higher. Residues, ends and D or L forms follow the SMILES beside them. *: point of attachment. OBn = c1ccc(CO*)cc1

How the values were obtained:
Experiment in all cases: growth of human tumour cells (NCI), 48 h
CAKI-1 = tested on: CAKI-1
M14 = tested on: M14
UACC-62 = tested on: UACC-62
Malme-3M = tested on: Malme-3M
SF-295 = tested on: SF-295
DU-145 = tested on: DU-145
OVCAR-8 = tested on: OVCAR-8
RXF 393 = tested on: RXF 393
IGROV-1 = tested on: IGROV-1
NCI-H23 = tested on: NCI-H23
Hs-578T = tested on: Hs-578T
SNB-19 = tested on: SNB-19
EKVX = tested on: EKVX
SW-620 = tested on: SW-620
TK-10 = tested on: TK-10
786-0 = tested on: 786-0
SNB-75 = tested on: SNB-75
HCT-15 = tested on: HCT-15
HCT-116 = tested on: HCT-116
MDA-MB-231 = tested on: MDA-MB-231

Measured: GI50

COc1ccc(-n2c(=O)n(C)c(=O)n2-c2c(C)c(C)c(C)c(C)c2C)cc1
inactive: CAKI-1 > 100 µM | M14 > 100 µM | UACC-62 > 100 µM | Malme-3M > 100 µM | SF-295 > 100 µM | DU-145 > 100 µM | OVCAR-8 > 100 µM | RXF 393 > 100 µM | IGROV-1 > 100 µM | NCI-H23 > 100 µM | Hs-578T > 100 µM | SNB-19 > 100 µM | EKVX > 100 µM | SW-620 > 100 µM | TK-10 > 100 µM | 786-0 > 100 µM | SNB-75 > 100 µM | HCT-116 > 100 µM | MDA-MB-231 > 100 µM
> 100 µM: HCT-15

C/C(=N/CC(=O)O)c1ccccc1
inactive: CAKI-1 > 100 µM | M14 > 100 µM | UACC-62 > 100 µM | Malme-3M > 100 µM | SF-295 > 100 µM | DU-145 > 100 µM | OVCAR-8 > 100 µM | RXF 393 > 100 µM | IGROV-1 > 100 µM | NCI-H23 92.5 µM | Hs-578T > 100 µM | SNB-19 > 100 µM | EKVX > 100 µM | SW-620 > 100 µM | TK-10 > 100 µM | 786-0 > 100 µM | SNB-75 > 100 µM | HCT-116 > 100 µM | MDA-MB-231 > 100 µM
> 100 µM: HCT-15

C[C@H](CCC(=O)O)[C@H]1CC[C@H]2[C@@H]3[C@H](O)C[C@@H]4C[C@H](O)CC[C@]4(C)[C@H]3C[C@H](O)[C@]12C
> 100 µM: HCT-15
inactive: CAKI-1 > 100 µM | M14 > 100 µM | UACC-62 > 100 µM | Malme-3M > 100 µM | SF-295 > 100 µM | DU-145 > 100 µM | OVCAR-8 > 100 µM | RXF 393 > 100 µM | IGROV-1 > 100 µM | NCI-H23 > 100 µM | Hs-578T > 100 µM | SNB-19 > 100 µM | EKVX > 100 µM | SW-620 > 100 µM | TK-10 > 100 µM | 786-0 > 100 µM | SNB-75 > 100 µM | HCT-116 > 100 µM | MDA-MB-231 > 100 µM

CCOC(CNCCC(=O)OC)OCC
> 10 µM: HCT-15
inactive: CAKI-1 > 10 µM | M14 > 10 µM | UACC-62 > 10 µM | Malme-3M > 10 µM | SF-295 > 10 µM | DU-145 > 10 µM | OVCAR-8 > 10 µM | RXF 393 > 10 µM | IGROV-1 > 10 µM | NCI-H23 > 10 µM | Hs-578T > 10 µM | SNB-19 > 10 µM | EKVX > 10 µM | SW-620 > 10 µM | TK-10 > 10 µM | 786-0 > 10 µM | SNB-75 > 10 µM | HCT-116 > 10 µM | MDA-MB-231 > 10 µM

NC(CCC(=O)OCc1ccccc1)C(=O)NC(CCC(=O)OCc1ccccc1)C(=O)O (stereo not given) (H-Glu(OBn)-Glu(OBn)-OH; configuration not given here)
inactive: CAKI-1 > 100 µM | M14 > 100 µM | UACC-62 > 100 µM | Malme-3M > 100 µM | SF-295 > 100 µM | DU-145 > 100 µM | OVCAR-8 > 100 µM | RXF 393 > 100 µM | IGROV-1 > 100 µM | NCI-H23 > 100 µM | Hs-578T > 100 µM | SNB-19 > 100 µM | EKVX > 100 µM | SW-620 > 100 µM | TK-10 > 100 µM | 786-0 > 100 µM | SNB-75 > 100 µM | HCT-116 > 100 µM | MDA-MB-231 > 100 µM
> 100 µM: HCT-15

COc1ccc(/C=C2\N=C(N3CCCCC3)NC2=O)cc1
> 100 µM: HCT-15
inactive: CAKI-1 > 100 µM | M14 > 100 µM | UACC-62 > 100 µM | Malme-3M > 100 µM | SF-295 > 100 µM | DU-145 > 100 µM | OVCAR-8 > 100 µM | RXF 393 64 µM | IGROV-1 > 100 µM | NCI-H23 > 100 µM | Hs-578T > 100 µM | SNB-19 > 100 µM | EKVX > 100 µM | SW-620 96.8 µM | TK-10 > 100 µM | 786-0 > 100 µM | SNB-75 37.2 µM | HCT-116 > 100 µM | MDA-MB-231 > 100 µM

Cc1cc(=O)n2nc(CN3CCCCC3)sc2n1
> 100 µM: HCT-15
inactive: CAKI-1 > 100 µM | M14 > 100 µM | UACC-62 > 100 µM | Malme-3M > 100 µM | SF-295 > 100 µM | DU-145 > 100 µM | OVCAR-8 > 100 µM | RXF 393 > 100 µM | IGROV-1 > 100 µM | NCI-H23 > 100 µM | Hs-578T > 100 µM | SNB-19 > 100 µM | EKVX > 100 µM | SW-620 > 100 µM | TK-10 > 100 µM | 786-0 > 100 µM | SNB-75 54.5 µM | HCT-116 > 100 µM | MDA-MB-231 > 100 µM

Cc1ccc(C)c2c1n1c(=O)n(C)c(=O)n21
inactive: CAKI-1 > 100 µM | M14 > 100 µM | UACC-62 > 100 µM | Malme-3M > 100 µM | SF-295 > 100 µM | DU-145 > 100 µM | OVCAR-8 > 100 µM | RXF 393 > 100 µM | IGROV-1 > 100 µM | NCI-H23 > 100 µM | Hs-578T > 100 µM | SNB-19 > 100 µM | EKVX > 100 µM | SW-620 > 100 µM | TK-10 > 100 µM | 786-0 > 100 µM | SNB-75 > 100 µM | HCT-116 > 100 µM | MDA-MB-231 > 100 µM
> 100 µM: HCT-15

CCCc1cc(-c2ccc(-c3cc(CCC)c(C=O)[nH]3)s2)[nH]c1C=O
inactive: CAKI-1 > 100 µM | M14 7.08 µM | UACC-62 > 32.6 µM | Malme-3M 21.2 µM | SF-295 11.9 µM | DU-145 > 100 µM | OVCAR-8 > 49.1 µM | RXF 393 30.1 µM | IGROV-1 > 100 µM | NCI-H23 > 37.1 µM | Hs-578T 41.2 µM | SNB-19 > 100 µM | EKVX > 100 µM | SW-620 > 55.8 µM | TK-10 > 100 µM | 786-0 14.4 µM | SNB-75 > 100 µM | HCT-116 21.8 µM | MDA-MB-231 > 100 µM
8.61 µM: HCT-15

CCOC1=C/C(=N\Nc2ccc([N+](=O)[O-])cc2)CCC1
7.94 µM: HCT-15
inactive: CAKI-1 28.8 µM | M14 49.4 µM | UACC-62 22.5 µM | Malme-3M 96.2 µM | SF-295 13.1 µM | DU-145 > 100 µM | OVCAR-8 16.4 µM | RXF 393 21.9 µM | IGROV-1 15 µM | NCI-H23 18.5 µM | Hs-578T 38.5 µM | SNB-19 34.7 µM | EKVX 87.9 µM | SW-620 14.8 µM | TK-10 25.5 µM | 786-0 32.4 µM | SNB-75 26.4 µM | HCT-116 41.7 µM | MDA-MB-231 27.9 µM

O=C(Sc1c(-c2ccccc2)c(=O)n(-c2ccccc2)c(=S)n1-c1ccccc1)c1ccco1
inactive: CAKI-1 > 100 µM | M14 > 100 µM | UACC-62 > 76.4 µM | Malme-3M > 69.5 µM | SF-295 > 100 µM | DU-145 > 100 µM | OVCAR-8 > 100 µM | RXF 393 > 100 µM | IGROV-1 > 100 µM | NCI-H23 > 100 µM | Hs-578T > 73.5 µM | SNB-19 > 100 µM | EKVX > 100 µM | SW-620 > 57.5 µM | TK-10 > 100 µM | 786-0 > 100 µM | SNB-75 72.1 µM | HCT-116 > 100 µM | MDA-MB-231 > 100 µM
> 89.1 µM: HCT-15

S=C1Cc2cc3ccccc3nc2-c2ccccc2N1
inactive: CAKI-1 29.6 µM | M14 26.7 µM | UACC-62 8.45 µM | Malme-3M 27.5 µM | SF-295 22.7 µM | DU-145 70.8 µM | OVCAR-8 11.9 µM | RXF 393 8.65 µM | IGROV-1 29 µM | NCI-H23 23.9 µM | Hs-578T 5.64 µM | SNB-19 > 29.3 µM | EKVX 38 µM | SW-620 37 µM | TK-10 24.3 µM | 786-0 12.6 µM | SNB-75 7.24 µM | HCT-116 13.6 µM | MDA-MB-231 10.4 µM
42.3 µM: HCT-15

CC(=O)/C(=N\N=C(N)N)c1ccccc1
> 100 µM: HCT-15
inactive: CAKI-1 > 100 µM | M14 > 100 µM | UACC-62 > 100 µM | Malme-3M > 100 µM | SF-295 > 100 µM | DU-145 > 100 µM | OVCAR-8 > 100 µM | RXF 393 > 100 µM | IGROV-1 > 100 µM | NCI-H23 > 100 µM | Hs-578T > 100 µM | SNB-19 > 100 µM | EKVX 68.1 µM | SW-620 > 100 µM | TK-10 > 100 µM | 786-0 > 100 µM | SNB-75 > 100 µM | HCT-116 > 100 µM | MDA-MB-231 > 100 µM

CC1(C)C(C(=O)OC(C#N)c2cccc(OCC(=O)OCc3ccccc3)c2)C1(C)C (stereo not given)
inactive: CAKI-1 > 100 µM | M14 48.6 µM | UACC-62 > 100 µM | Malme-3M > 100 µM | SF-295 > 100 µM | DU-145 > 100 µM | OVCAR-8 35.2 µM | RXF 393 > 100 µM | IGROV-1 > 100 µM | NCI-H23 37.4 µM | Hs-578T > 100 µM | SNB-19 > 100 µM | EKVX > 100 µM | SW-620 70.3 µM | TK-10 > 100 µM | 786-0 > 100 µM | SNB-75 41.5 µM | HCT-116 40.4 µM | MDA-MB-231 66.1 µM
> 100 µM: HCT-15
